{"source": "patent US20110230481A2", "about": "“DERIVATIVES OF TETRABROMOBENZIMIDAZOLE, A PROCESS FOR THE PREPARATION THEREOF, A PHARMACEUTICAL COMPOSITION COMPRISING THE SAME, A METHOD OF USING THE SAME, A METHOD FOR MODULATING OR REGULATING SERINE/THREONINE KINASES, AND SERINE/THREONINE KINASES MODULATING AGENT” (SELVITA S.A., priority 2009, published 2011)", "test_in_all_cases": "KINOMEscan Max", "assay_type_in_all_cases": "binding", "key": {"CTK": {"target": "CTK (Homo sapiens, UniProt P42679)", "sequence (P42679 whole entry)": "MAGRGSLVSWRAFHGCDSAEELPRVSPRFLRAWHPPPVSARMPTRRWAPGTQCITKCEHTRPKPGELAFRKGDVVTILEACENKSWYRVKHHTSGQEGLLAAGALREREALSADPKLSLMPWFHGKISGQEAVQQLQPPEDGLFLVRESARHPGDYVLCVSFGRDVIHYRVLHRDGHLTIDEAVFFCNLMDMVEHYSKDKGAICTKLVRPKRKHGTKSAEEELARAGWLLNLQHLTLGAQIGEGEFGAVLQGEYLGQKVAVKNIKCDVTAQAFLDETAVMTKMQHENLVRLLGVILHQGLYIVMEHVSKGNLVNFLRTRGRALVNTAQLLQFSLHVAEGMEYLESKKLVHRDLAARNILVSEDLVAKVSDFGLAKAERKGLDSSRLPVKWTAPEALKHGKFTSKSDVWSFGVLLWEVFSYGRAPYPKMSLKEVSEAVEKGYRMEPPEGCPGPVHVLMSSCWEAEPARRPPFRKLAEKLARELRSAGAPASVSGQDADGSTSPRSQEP", "summary_of_the_method": "(§1)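 DNA-tagged kinase + immobilized active-site directed ligand + test compound combined; ligand-bound kinase quantified by qPCR of tag. Competition binding format.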"}, "ACVR2A": {"target": "T1, ACVR2A (Homo sapiens, UniProt P27037)", "T1 construct": "DNA tag (qPCR label); purchased Ambit Kinomescan (contract screening)", "T1 sequence (P27037 20-513)": "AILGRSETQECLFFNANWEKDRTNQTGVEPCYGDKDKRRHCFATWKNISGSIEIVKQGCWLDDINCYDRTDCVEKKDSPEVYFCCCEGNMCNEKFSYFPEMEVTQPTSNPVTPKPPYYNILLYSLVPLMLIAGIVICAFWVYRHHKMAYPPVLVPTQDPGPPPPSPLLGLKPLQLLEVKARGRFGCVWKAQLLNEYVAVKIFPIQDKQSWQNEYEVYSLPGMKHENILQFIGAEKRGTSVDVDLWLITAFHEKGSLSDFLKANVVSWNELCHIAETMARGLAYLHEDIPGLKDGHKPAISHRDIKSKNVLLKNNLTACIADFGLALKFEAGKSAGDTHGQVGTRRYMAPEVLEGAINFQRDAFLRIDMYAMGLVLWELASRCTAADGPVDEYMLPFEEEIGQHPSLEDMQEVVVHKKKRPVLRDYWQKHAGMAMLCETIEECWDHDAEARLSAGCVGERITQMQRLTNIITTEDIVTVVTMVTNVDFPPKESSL", "summary_of_the_method": "as §1"}, "PKAC-alpha": {"target": "T2, PKAC-alpha (Homo sapiens, UniProt P17612)", "T2 construct": "purchased Ambit (KINOMEscan Max service)", "summary_of_the_method": "as §1"}, "SLK": {"target": "SLK (Homo sapiens, UniProt Q9H2G2)", "summary_of_the_method": "as §1"}, "IRAK4": {"target": "T3, IRAK4 (Homo sapiens, UniProt Q9NWZ3)", "T3 construct": "purchased Ambit Kinomescan (contract panel)", "details": "1 μM", "summary_of_the_method": "as §1"}, "CLK3": {"target": "T4, CLK3 (Homo sapiens, UniProt P49761)", "T4 construct": "purchased Ambit (KINOMEscan Max service)", "summary_of_the_method": "as §1"}, "[1]": {"target": "ABL1(H396P)nonphosphorylated (Homo sapiens, UniProt P00519, H396P)", "summary_of_the_method": "as §1"}, "MAP4K4": {"target": "T5, MAP4K4 (Homo sapiens, UniProt O95819)", "T5 construct": "purchased Ambit Kinomescan (contract screening)", "summary_of_the_method": "as §1"}, "[2]": {"target": "ABL1(Q252H)-phosphorylated (Homo sapiens, UniProt P00519, Q252H)", "summary_of_the_method": "as §1"}, "DCAMKL1": {"target": "DCAMKL1 (Homo sapiens, UniProt O15075)", "details": "1 μM", "summary_of_the_method": "as §1"}, "GSK3A": {"target": "T6, GSK3A (Homo sapiens, UniProt P49840)", "T6 construct": "purchased Ambit Kinomescan (contract panel, KINOMEscan Max)", "summary_of_the_method": "as §1"}, "RET(M918T)": {"target": "T7, RET(M918T) (Homo sapiens, UniProt P07949, M918T)", "T7 construct": "DNA tag (qPCR read-out)", "summary_of_the_method": "as §1"}, "TESK1": {"target": "TESK1 (Homo sapiens, UniProt Q15569)", "summary_of_the_method": "as §1"}, "MAP3K4": {"target": "T8, MAP3K4 (Homo sapiens, UniProt Q9Y6R4)", "T8 construct": "purchased Ambit Kinomescan (contract panel)", "summary_of_the_method": "as §1"}, "NEK4": {"target": "NEK4 (Homo sapiens, UniProt P51957)", "summary_of_the_method": "as §1"}, "MKNK1": {"target": "MKNK1 (Homo sapiens, UniProt Q9BUB5)", "summary_of_the_method": "as §1"}, "MERTK": {"target": "T9, MERTK (Homo sapiens, UniProt Q12866)", "T9 construct": "purchased Ambit (KINOMEscan Max service)", "T9 sequence (Q12866 21-999)": "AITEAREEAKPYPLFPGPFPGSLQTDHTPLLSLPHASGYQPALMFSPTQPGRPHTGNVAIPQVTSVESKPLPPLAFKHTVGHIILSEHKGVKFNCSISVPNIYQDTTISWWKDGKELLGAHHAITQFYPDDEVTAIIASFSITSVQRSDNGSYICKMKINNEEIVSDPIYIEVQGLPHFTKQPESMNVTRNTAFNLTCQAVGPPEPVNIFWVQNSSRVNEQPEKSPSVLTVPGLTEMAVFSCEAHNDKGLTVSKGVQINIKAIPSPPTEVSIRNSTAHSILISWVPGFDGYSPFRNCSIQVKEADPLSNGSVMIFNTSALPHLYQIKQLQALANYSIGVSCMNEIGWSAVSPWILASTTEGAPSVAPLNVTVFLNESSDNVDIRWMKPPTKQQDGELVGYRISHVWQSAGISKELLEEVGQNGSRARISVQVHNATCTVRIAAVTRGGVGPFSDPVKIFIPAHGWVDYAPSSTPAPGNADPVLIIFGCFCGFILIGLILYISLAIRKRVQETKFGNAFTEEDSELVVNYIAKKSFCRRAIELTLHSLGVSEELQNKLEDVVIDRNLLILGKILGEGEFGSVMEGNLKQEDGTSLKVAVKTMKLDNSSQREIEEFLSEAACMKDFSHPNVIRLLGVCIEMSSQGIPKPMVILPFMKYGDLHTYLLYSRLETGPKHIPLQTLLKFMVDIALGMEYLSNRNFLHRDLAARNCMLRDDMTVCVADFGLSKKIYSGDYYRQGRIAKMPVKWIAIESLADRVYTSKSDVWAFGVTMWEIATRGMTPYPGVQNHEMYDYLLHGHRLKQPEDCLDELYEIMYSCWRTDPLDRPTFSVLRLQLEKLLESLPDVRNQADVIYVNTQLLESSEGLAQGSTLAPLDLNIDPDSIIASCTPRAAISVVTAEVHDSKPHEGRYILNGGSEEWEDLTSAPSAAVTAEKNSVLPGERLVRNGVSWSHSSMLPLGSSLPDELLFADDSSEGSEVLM", "summary_of_the_method": "as §1"}, "AMPK-alpha1": {"target": "T10, AMPK-alpha1 (Homo sapiens, UniProt Q13131)", "T10 construct": "DNA tag (qPCR label); purchased Ambit Kinomescan (contract screening)", "summary_of_the_method": "as §1"}, "[3]": {"target": "T11, RSK2(Kin.Dom.1-N-terminal) (Homo sapiens, UniProt P51812)", "T11 construct": "RSK2(Kin.Dom.1-N-terminal); DNA tag (qPCR read-out)", "T11 sequence (P51812 68-327 limits assumed)": "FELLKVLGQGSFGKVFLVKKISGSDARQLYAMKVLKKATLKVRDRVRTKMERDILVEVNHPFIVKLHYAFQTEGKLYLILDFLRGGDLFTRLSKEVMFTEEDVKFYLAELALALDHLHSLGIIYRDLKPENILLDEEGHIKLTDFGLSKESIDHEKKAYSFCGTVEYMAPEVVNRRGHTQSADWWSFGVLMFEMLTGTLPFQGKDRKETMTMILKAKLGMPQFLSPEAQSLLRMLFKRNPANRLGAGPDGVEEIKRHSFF", "summary_of_the_method": "as §1"}, "CDC2L5": {"target": "T12, CDC2L5 (Homo sapiens, UniProt Q14004)", "T12 construct": "DNA tag (qPCR read-out); purchased Ambit Kinomescan", "details": "1 μM", "summary_of_the_method": "as §1"}, "LTK": {"target": "T13, LTK (Homo sapiens, UniProt P29376)", "T13 construct": "purchased Ambit Kinomescan (contract panel)", "T13 sequence (P29376 17-864)": "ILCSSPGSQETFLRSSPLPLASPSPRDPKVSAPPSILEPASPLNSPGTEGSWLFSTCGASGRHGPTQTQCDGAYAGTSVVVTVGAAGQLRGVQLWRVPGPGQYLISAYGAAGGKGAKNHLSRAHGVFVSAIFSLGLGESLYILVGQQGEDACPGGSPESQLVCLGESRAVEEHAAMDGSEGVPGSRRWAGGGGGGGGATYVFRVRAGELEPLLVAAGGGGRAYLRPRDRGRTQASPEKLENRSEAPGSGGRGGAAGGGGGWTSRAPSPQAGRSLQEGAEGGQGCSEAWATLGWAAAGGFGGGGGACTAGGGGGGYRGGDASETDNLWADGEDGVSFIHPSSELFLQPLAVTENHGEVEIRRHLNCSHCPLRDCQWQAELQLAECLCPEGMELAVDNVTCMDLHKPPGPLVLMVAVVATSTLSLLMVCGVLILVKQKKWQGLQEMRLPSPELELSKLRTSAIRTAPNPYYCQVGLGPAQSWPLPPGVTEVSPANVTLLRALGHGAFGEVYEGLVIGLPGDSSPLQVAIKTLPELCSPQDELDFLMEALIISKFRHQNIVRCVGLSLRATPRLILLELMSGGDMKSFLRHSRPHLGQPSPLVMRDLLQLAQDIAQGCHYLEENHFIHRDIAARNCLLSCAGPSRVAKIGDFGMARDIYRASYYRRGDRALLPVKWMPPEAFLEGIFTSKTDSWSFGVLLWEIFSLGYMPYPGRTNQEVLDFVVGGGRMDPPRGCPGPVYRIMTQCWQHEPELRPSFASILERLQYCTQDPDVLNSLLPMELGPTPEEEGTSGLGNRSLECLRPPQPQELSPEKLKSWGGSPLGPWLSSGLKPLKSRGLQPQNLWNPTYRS", "summary_of_the_method": "as §1"}, "ANKK1": {"target": "T14, ANKK1 (Homo sapiens, UniProt Q8NFD2)", "T14 construct": "DNA tag (qPCR label); purchased Ambit Kinomescan (contract screening)", "summary_of_the_method": "as §1"}, "ERBB2": {"target": "T15, ERBB2 (Homo sapiens, UniProt P04626)", "T15 construct": "purchased Ambit Kinomescan (contract panel, KINOMEscan Max)", "summary_of_the_method": "as §1"}, "PIK4CB": {"target": "T16, PIK4CB (Homo sapiens, UniProt Q9UBF8)", "T16 construct": "DNA tag (qPCR read-out)", "summary_of_the_method": "as §1"}, "PRP4": {"target": "T17, PRP4 (Homo sapiens, UniProt Q13523)", "T17 construct": "purchased Ambit (KINOMEscan Max service)", "summary_of_the_method": "as §1"}, "PIK3C2B": {"target": "T18, PIK3C2B (Homo sapiens, UniProt O00750)", "T18 construct": "purchased Ambit Kinomescan (contract screening)", "summary_of_the_method": "as §1"}, "LRRK2": {"target": "LRRK2 (Homo sapiens, UniProt Q5S007)", "summary_of_the_method": "as §1"}, "IKK-alpha": {"target": "T19, IKK-alpha (Homo sapiens, UniProt O15111)", "T19 construct": "DNA tag (qPCR read-out); purchased Ambit Kinomescan", "summary_of_the_method": "as §1"}, "TXK": {"target": "TXK (Homo sapiens, UniProt P42681)", "sequence (P42681 whole entry)": "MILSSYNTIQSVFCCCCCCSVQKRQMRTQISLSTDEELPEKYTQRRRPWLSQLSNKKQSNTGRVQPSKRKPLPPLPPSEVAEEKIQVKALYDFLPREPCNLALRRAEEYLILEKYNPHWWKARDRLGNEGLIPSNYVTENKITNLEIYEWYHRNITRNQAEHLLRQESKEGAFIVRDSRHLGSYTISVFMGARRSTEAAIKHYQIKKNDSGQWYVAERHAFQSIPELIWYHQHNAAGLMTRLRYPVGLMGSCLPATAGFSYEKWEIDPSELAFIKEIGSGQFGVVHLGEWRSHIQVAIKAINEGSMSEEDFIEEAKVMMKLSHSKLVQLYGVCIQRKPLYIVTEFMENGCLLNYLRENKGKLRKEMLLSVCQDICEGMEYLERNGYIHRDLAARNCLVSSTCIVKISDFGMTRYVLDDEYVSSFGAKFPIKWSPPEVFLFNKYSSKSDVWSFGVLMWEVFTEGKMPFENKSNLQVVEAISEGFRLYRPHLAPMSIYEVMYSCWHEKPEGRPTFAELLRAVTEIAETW", "summary_of_the_method": "as §1"}, "TRPM6": {"target": "TRPM6 (Homo sapiens, UniProt Q9BX84)", "summary_of_the_method": "as §1"}, "AXL": {"target": "T20, AXL (Homo sapiens, UniProt P30530)", "T20 construct": "DNA tag (qPCR read-out)", "summary_of_the_method": "as §1"}, "NEK1": {"target": "NEK1 (Homo sapiens, UniProt Q96PY6)", "sequence (Q96PY6 whole entry)": "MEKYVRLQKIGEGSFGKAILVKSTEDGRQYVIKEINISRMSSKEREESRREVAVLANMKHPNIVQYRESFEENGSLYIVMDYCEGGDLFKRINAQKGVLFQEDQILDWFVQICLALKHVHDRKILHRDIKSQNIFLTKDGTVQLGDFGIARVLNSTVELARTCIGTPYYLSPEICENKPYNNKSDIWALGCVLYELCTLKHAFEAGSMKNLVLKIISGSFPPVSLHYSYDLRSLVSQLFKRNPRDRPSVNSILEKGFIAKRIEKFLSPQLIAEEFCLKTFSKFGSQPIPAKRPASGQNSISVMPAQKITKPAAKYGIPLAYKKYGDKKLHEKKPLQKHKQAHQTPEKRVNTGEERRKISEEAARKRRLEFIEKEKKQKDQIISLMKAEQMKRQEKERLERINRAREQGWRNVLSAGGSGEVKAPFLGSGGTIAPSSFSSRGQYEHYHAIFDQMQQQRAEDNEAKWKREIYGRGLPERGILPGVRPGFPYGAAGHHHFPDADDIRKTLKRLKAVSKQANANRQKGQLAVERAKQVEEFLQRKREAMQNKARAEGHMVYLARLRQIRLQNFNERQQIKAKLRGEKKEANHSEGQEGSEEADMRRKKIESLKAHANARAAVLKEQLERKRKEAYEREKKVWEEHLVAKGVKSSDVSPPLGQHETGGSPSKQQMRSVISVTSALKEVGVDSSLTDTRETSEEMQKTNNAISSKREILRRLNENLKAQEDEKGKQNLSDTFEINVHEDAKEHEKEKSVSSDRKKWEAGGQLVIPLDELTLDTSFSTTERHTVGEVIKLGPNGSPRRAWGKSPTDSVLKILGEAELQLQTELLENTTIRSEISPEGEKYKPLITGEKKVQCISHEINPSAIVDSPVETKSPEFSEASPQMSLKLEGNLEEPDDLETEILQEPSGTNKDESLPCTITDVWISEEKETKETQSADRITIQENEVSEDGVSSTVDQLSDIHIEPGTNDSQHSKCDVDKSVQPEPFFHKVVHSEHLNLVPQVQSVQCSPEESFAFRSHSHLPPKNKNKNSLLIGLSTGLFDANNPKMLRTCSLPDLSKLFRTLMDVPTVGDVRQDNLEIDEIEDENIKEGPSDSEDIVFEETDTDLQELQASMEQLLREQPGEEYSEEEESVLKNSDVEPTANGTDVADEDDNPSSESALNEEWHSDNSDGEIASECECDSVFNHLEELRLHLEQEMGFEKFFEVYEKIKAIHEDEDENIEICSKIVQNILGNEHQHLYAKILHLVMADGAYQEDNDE", "summary_of_the_method": "as §1"}, "EGFR(L858R.T790M)": {"target": "T21, EGFR(L858R.T790M) (Homo sapiens, UniProt P00533, L858R/T790M)", "T21 construct": "purchased Ambit (KINOMEscan Max panel service)", "details": "1 μM", "summary_of_the_method": "as §1"}, "KIT(V559D.V654A)": {"target": "T22, KIT(V559D.V654A) (Homo sapiens, UniProt P10721, V559D/V654A)", "T22 construct": "purchased Ambit Kinomescan (contract panel)", "summary_of_the_method": "as §1"}}, "data": [{"smiles": "NCCCNc1nc2c(Br)c(Br)c(Br)c(Br)c2[nH]1", "note": "[Compound 11, N-(3-aminopropyl)-4,5,6,7-tetrabromo-1H-benzo[d]imidazol-2-amine]", "values": [{"measurement": "remaining binding at 1 µM", "setting": "CTK", "result": 74, "unit": "%"}, {"measurement": "remaining binding at 1 µM", "setting": "ACVR2A", "result": 100, "unit": "%"}, {"measurement": "remaining binding at 1 µM", "setting": "PKAC-alpha", "result": 68, "unit": "%"}, {"measurement": "remaining binding at 1 µM", "setting": "SLK", "result": 92, "unit": "%"}, {"measurement": "% binding", "setting": "IRAK4", "result": 100, "unit": "%"}, {"measurement": "remaining binding at 1 µM", "setting": "CLK3", "result": 70, "unit": "%"}, {"measurement": "remaining binding at 1 µM", "setting": "[1]", "result": 100, "unit": "%"}, {"measurement": "remaining binding at 1 µM", "setting": "MAP4K4", "result": 98, "unit": "%"}, {"measurement": "remaining binding at 1 µM", "setting": "[2]", "result": 100, "unit": "%"}, {"measurement": "% binding", "setting": "DCAMKL1", "result": 96, "unit": "%"}, {"measurement": "remaining binding at 1 µM", "setting": "GSK3A", "result": 100, "unit": "%"}, {"measurement": "remaining binding at 1 µM", "setting": "RET(M918T)", "result": 100, "unit": "%"}, {"measurement": "remaining binding at 1 µM", "setting": "TESK1", "result": 93, "unit": "%"}, {"measurement": "remaining binding at 1 µM", "setting": "MAP3K4", "result": 100, "unit": "%"}, {"measurement": "remaining binding at 1 µM", "setting": "NEK4", "result": 98, "unit": "%"}, {"measurement": "remaining binding at 1 µM", "setting": "MKNK1", "result": 100, "unit": "%"}, {"measurement": "remaining binding at 1 µM", "setting": "MERTK", "result": 70, "unit": "%"}, {"measurement": "remaining binding at 1 µM", "setting": "AMPK-alpha1", "result": 100, "unit": "%"}, {"measurement": "remaining binding at 1 µM", "setting": "[3]", "result": 100, "unit": "%"}, {"measurement": "% binding", "setting": "CDC2L5", "result": 24, "unit": "%"}, {"measurement": "remaining binding at 1 µM", "setting": "LTK", "result": 100, "unit": "%"}, {"measurement": "remaining binding at 1 µM", "setting": "ANKK1", "result": 100, "unit": "%"}, {"measurement": "remaining binding at 1 µM", "setting": "ERBB2", "result": 100, "unit": "%"}, {"measurement": "remaining binding at 1 µM", "setting": "PIK4CB", "result": 100, "unit": "%"}, {"measurement": "remaining binding at 1 µM", "setting": "PRP4", "result": 84, "unit": "%"}, {"measurement": "remaining binding at 1 µM", "setting": "PIK3C2B", "result": 96, "unit": "%"}, {"measurement": "remaining binding at 1 µM", "setting": "LRRK2", "result": 94, "unit": "%"}, {"measurement": "remaining binding at 1 µM", "setting": "IKK-alpha", "result": 24, "unit": "%"}, {"measurement": "remaining binding at 1 µM", "setting": "TXK", "result": 93, "unit": "%"}, {"measurement": "remaining binding at 1 µM", "setting": "TRPM6", "result": 91, "unit": "%"}, {"measurement": "remaining binding at 1 µM", "setting": "AXL", "result": 90, "unit": "%"}, {"measurement": "remaining binding at 1 µM", "setting": "NEK1", "result": 100, "unit": "%"}, {"measurement": "% binding", "setting": "EGFR(L858R.T790M)", "result": 100, "unit": "%"}, {"measurement": "remaining binding at 1 µM", "setting": "KIT(V559D.V654A)", "result": 100, "unit": "%"}]}]}
